Data on 15 molecules can be found in patent US20240189449A1, “LIPID NANOPARTICLES AND POLYNUCLEOTIDES ENCODING ORNITHINE TRANSCARBAMYLASE FOR THE TREATMENT OF ORNITHINE TRANSCARBAMYLASE DEFICIENCY” (ModernaTX, Inc., priority 2021, published 2024).

The test system of data set [1] is CD-1 mice. The data set is described as follows: hEPO expression in serum after IV lipid nanoparticles with hEPO mRNA, CD-1 mice. The settings on record: LNP with DSPC, cholesterol, Compound I; for Mean 6 hr hEPO Concentration: serum 6 hours after injection. Type of data set: in vivo. As to the method: To assess potency of expression and metabolic stability of lipids of the disclosure, hepatocyte protein expression (hEPO) was measured following administration to mice of a nanoparticle of the disclosure.
Lipid nanoparticles including DSPC as a phospholipid, cholesterol as a structural lipid, Compound I as a PEG lipid, an ionizable amino lipid of Formula (II), and an mRNA encoding hEPO were intravenously administered to CD-1 mice. The concentration of hEPO in serum was tested at 6 hours after injection.

For data set [2], the system named is CD-1 mice. The data set is described as follows: Parent lipid remaining in liver at 24 h, CD-1 mice (hEPO mRNA LNPs). The class given is in vivo. The settings on record: for Approx. Percent Total Dose of Parent Lipid Remaining at 24 h: calculation assumes a 25 g mouse with a 1.5 g liver.

Marks after values point to notes of the source that are not given here. A value given as a limit tells only on which side of the number the result lay.

Take `CCCCCCCCC(CCCCCC)COC(=O)CCCCCN(CCCCCCCC(=O)OC(CC)CCCCCCCC)CCCNc1c(NC)c(=O)c1=O` (stereo not drawn) [Compound 15]: in data set [1], the “hEPO AUC” value stood at 4.31E+07 and the “Mean 6 hr hEPO Concentration” value came out at 2933644 mIU/mL. In data set [2], the “Parent Lipid Remaining (nmol/g liver tissue) at 24 h” value was 51 ± 4 nmol/g liver tissue and the “Approx. Percent Total Dose of Parent Lipid Remaining at 24 h” value is 53%.
With `CCCCCCCCC(CCCCCCCC)OC(=O)CCCCCCCN(CCCCCCCC(=O)OCC(CCCCC)CCCCCCC)CCCNc1c(NC)c(=O)c1=O` (stereo not drawn) [Compound 16], in data set [1], the “hEPO AUC” value turned out to be 2.18E+07 and the “Mean 6 hr hEPO Concentration” value is recorded as 1461176 mIU/mL. In data set [2], the “Parent Lipid Remaining (nmol/g liver tissue) at 24 h” value amounted to 77 ± 3 nmol/g liver tissue and the “Approx. Percent Total Dose of Parent Lipid Remaining at 24 h” value is 79%.
Consider `CCCCCCCCC(CCCCCCCC)OC(=O)CCCCCCCN(CCCCCCCC(=O)OCCC(CCCCCC)C(C)C)CCCNc1c(NC)c(=O)c1=O` (stereo not drawn) [Compound 17], for which, in data set [1], the “hEPO AUC” value is reported as 2.61E+07 and the “Mean 6 hr hEPO Concentration” value amounted to 1777875 mIU/mL. In addition, in data set [2], the “Parent Lipid Remaining (nmol/g liver tissue) at 24 h” value is 35 ± 5 nmol/g liver tissue and the “Approx. Percent Total Dose of Parent Lipid Remaining at 24 h” value is 36%.
As for `CCCCCCCCC(CCCCCCCC)OC(=O)CCCCCCCN(CCCCCCCC(=O)OCC(CCCCCCC)C(C)C)CCCNc1c(NC)c(=O)c1=O` (stereo not drawn) [Compound 19], in data set [1], the “hEPO AUC” value was found to be 3.11E+07 and the “Mean 6 hr hEPO Concentration” value turned out to be 2089101 mIU/mL. Moreover, in data set [2], the “Parent Lipid Remaining (nmol/g liver tissue) at 24 h” value is recorded as 73 ± 6 nmol/g liver tissue and the “Approx. Percent Total Dose of Parent Lipid Remaining at 24 h” value is reported as 75%.
In the same order, the values of `CCCCCCCCC(CCCCCCCC)OC(=O)CCCCCCCN(CCCCCCCC(=O)OCCC(CCCC)CCCCCC)CCCNc1c(NC)c(=O)c1=O` (stereo not drawn) [Compound 20] are 2.13E+07, 1414856 mIU/mL, 65 ± 5 nmol/g liver tissue and 67%.
`CCCCCCCCC(CCCCCCCC)OC(=O)CCCCCCCN(CCO)CCCCCCCC(=O)OCCC(CCCCCC)CCCCCC` [Compound 21]: in data set [1], the “hEPO AUC” value worked out at 7.29E+06 and the “Mean 6 hr hEPO Concentration” value is reported as 458772 mIU/mL. In data set [2], the “Parent Lipid Remaining (nmol/g liver tissue) at 24 h” value is given as 13 ± 2 nmol/g liver tissue and the “Approx. Percent Total Dose of Parent Lipid Remaining at 24 h” value is listed as 9%.
For the molecule `CCCCCCC(CCCCCC)CCOC(=O)CCCCCCCN(CCO)CCCCCCCC(=O)OCCC(CCCCCC)CCCCCC` [Compound 23], in data set [1], the “hEPO AUC” value is 1.40E+07 and the “Mean 6 hr hEPO Concentration” value is recorded as 847586 mIU/mL. Besides, in data set [2], the “Parent Lipid Remaining (nmol/g liver tissue) at 24 h” value was found to be 24 ± 3 nmol/g liver tissue and the “Approx. Percent Total Dose of Parent Lipid Remaining at 24 h” value is reported as 18%.
As to `CCCCCCCCC(CCCCCCCC)OC(=O)CCCCCCCN(CCCCCCCC(=O)OCCC(CCCCCC)CCCCCC)CCCNc1c(NC)c(=O)c1=O` [Compound 26], in data set [1], the “hEPO AUC” value came to 7.52E+06 and the “Mean 6 hr hEPO Concentration” value turned out to be 496951 mIU/mL. Further, in data set [2], the “Parent Lipid Remaining (nmol/g liver tissue) at 24 h” value was determined as 141 ± 15 nmol/g liver tissue and the “Approx. Percent Total Dose of Parent Lipid Remaining at 24 h” value is on record as over 95%^b.
As for `CCCCCCC(CCCCCC)CCOC(=O)CCCCCCCN(CCCCCCCC(=O)OCCC(CCCCCC)CCCCCC)CCCNc1c(NC)c(=O)c1=O` [Compound 28], in data set [1], the “hEPO AUC” value worked out at 1.44E+07 and the “Mean 6 hr hEPO Concentration” value came out at 938332 mIU/mL. Also, in data set [2], the “Parent Lipid Remaining (nmol/g liver tissue) at 24 h” value is listed as 58 ± 7 nmol/g liver tissue and the “Approx. Percent Total Dose of Parent Lipid Remaining at 24 h” value is on record as 60%.
Take `CCCCCCCCC(CCCCCCCC)OC(=O)CCCCCCCN(CCCCCCCC(=O)OCCC(CCCCC)CCCCC)CCCNc1c(NC)c(=O)c1=O` [Compound 29]: in data set [1], the “hEPO AUC” value was found to be 1.23E+07 and the “Mean 6 hr hEPO Concentration” value was found to be 808734 mIU/mL. Besides, in data set [2], the “Parent Lipid Remaining (nmol/g liver tissue) at 24 h” value came out at 66 ± 16 nmol/g liver tissue and the “Approx. Percent Total Dose of Parent Lipid Remaining at 24 h” value is recorded as 68%.
Consider `CCCCCCCCC(CCCCCCCC)OC(=O)CCCCCCCN(CCO)CCCCCCCC(=O)OCCCC(CCCCC)CCCCC` [Compound 31], for which, in data set [1], the “hEPO AUC” value amounted to 7.72E+06 and the “Mean 6 hr hEPO Concentration” value is 517841 mIU/mL. Besides, in data set [2], the “Parent Lipid Remaining (nmol/g liver tissue) at 24 h” value is recorded as 2 ± 0.6 nmol/g liver tissue and the “Approx. Percent Total Dose of Parent Lipid Remaining at 24 h” value is reported as under 0.1%.
The matching figures for `CCCCCCCCC(CCCCCCCC)OC(=O)CCCCCCCN(CCCCCCCC(=O)OCCCC(CCCCC)CCCCC)CCCNc1c(NC)c(=O)c1=O` [Compound 32]: 1.63E+06, 111656 mIU/mL, 69 ± 17 nmol/g liver tissue and 71%.
For the molecule `CCCCCC(CCCCC)CCCOC(=O)CCCCCCCN(CCO)CCCCCCCC(=O)OCCCC(CCCCC)CCCCC` [Compound 33], in data set [1], the “hEPO AUC” value was determined as 5.89E+06 and the “Mean 6 hr hEPO Concentration” value is recorded as 389395 mIU/mL. For the same molecule, in data set [2], the “Parent Lipid Remaining (nmol/g liver tissue) at 24 h” value worked out at 0.5 ± 0.3 nmol/g liver tissue and the “Approx. Percent Total Dose of Parent Lipid Remaining at 24 h” value is recorded as under 0.1%.
For `CCCCCC(CCCCC)CCCOC(=O)CCCCCCCN(CCCCCCCC(=O)OCCCC(CCCCC)CCCCC)CCCNc1c(NC)c(=O)c1=O` [Compound 34], in data set [1], the “hEPO AUC” value was 3.01E+06 and the “Mean 6 hr hEPO Concentration” value came out at 205437 mIU/mL. Moreover, in data set [2], the “Parent Lipid Remaining (nmol/g liver tissue) at 24 h” value came to 12 ± 2 nmol/g liver tissue and the “Approx. Percent Total Dose of Parent Lipid Remaining at 24 h” value was 12%.
For the molecule `CCCCCCCCC(CCCCCCCC)OC(=O)CCCCCCCN(CCO)CCCCCCCC(=O)OCCC1CCC(CC)CC1` (stereo not drawn) [Compound 35], in data set [1], the “hEPO AUC” value turned out to be 1.72E+06 and the “Mean 6 hr hEPO Concentration” value was determined as 106485 mIU/mL. Also, in data set [2], the “Parent Lipid Remaining (nmol/g liver tissue) at 24 h” value is given as under 0.1 nmol/g liver tissue and the “Approx. Percent Total Dose of Parent Lipid Remaining at 24 h” value is reported as under 0.1%.
